In PubChem BioAssay (NCI) one finds GI50 and TGI data, which are given here for 19 compounds.

What all share (experiment): DTP human tumour cell line panel, 48 h
Test [1] has as its system A549 NSCLC.
Test [2] relates to ACHN renal.
For test [3], the system named is BT-549 breast.
Test [4] relates to HS 578T breast.
Test [5] has as its system LOX IMVI melanoma.
For test [6], the system named is NCI-H460 lung.
The subject of test [7] is NCI/ADR-RES ovarian.
The subject of test [8] is RXF 393 renal.
For test [9], the system named is SK-MEL-2 melanoma.
Test [10] relates to SNB-19 CNS.

Molecules are shown by their SMILES.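 Grown in 96-well plates, cells were treated for 48 hours with each compound at five concentrations. Insufficient inhibition: endpoint recorded as highest concentration tested. GI50 = concentration required for 50% inhibition of growth. The concentration for full growth arrest is given as TGI.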

As for `COc1ccc(/C=C2\CC(C)CC3C2=NN(C(C)=O)C3c2ccc(OC)cc2)cc1` (configuration not stated), the GI50 (as a rule, the concentration that inhibits growth by half) in test [1] was 25.1 µM; in test [2], 17.2 µM; in [3], 23 µM; in test [4], 22.1 µM; in test [5], 17.6 µM; in test [6], 18.5 µM. The GI50 in [7] is 21.3 µM; in test [8], 27.2 µM; in test [9], 30.3 µM; in test [10], 27.6 µM. Also, the TGI (in general, the concentration giving total growth inhibition) in [1] is over 100 µM; in test [2], 39.3 µM; in test [3] it was 55.9 µM; in test [4] it was 60.6 µM; in [5], 38.3 µM; in test [6], 48.7 µM. In addition, the TGI in [7] is 73.2 µM; in test [8] it was over 100 µM; in test [9] it was over 100 µM; in [10], over 100 µM.
Take `Cc1cc(O)c(C2=NN(c3ccc(S(N)(=O)=O)cc3)C(c3ccc(N(C)C)cc3)C2)c(C)c1Cl` (configuration not stated): the GI50 in test [1] is 14.7 µM; in test [2], 14.9 µM; in [3], 15.4 µM; in [4], 23 µM; in test [5], 14.8 µM; in [6] it was 12.2 µM. Also, the GI50 in test [7] is 19.3 µM; in test [8], 24.5 µM; in test [9], 21.4 µM; in test [10], 22.2 µM. Further, the TGI in test [1] was 43.5 µM; in test [2] it was 30.6 µM; in test [3], 43.3 µM; in test [4], 62.3 µM; in test [5] it was 32 µM; in [6] it was 27.4 µM. The TGI in [7] came out at 76.4 µM; in [8] it was 59.1 µM; in [9] it was 43.6 µM; in [10] it was 62.6 µM.
In the case of `COC1=CC23CCCN2CCc2cc4c(cc2C3C1O)OCO4` (configuration not stated), the TGI in test [1] is over 100 µM; in [2] it was 60.1 µM; in test [3] it was over 100 µM; in [4], over 100 µM; in test [5], over 100 µM; in [6], over 100 µM. Moreover, the concentration for total growth inhibition (TGI) is over 100 µM in test [7], over 100 µM in test [9] and 67.8 µM in [10].
For `O=C(O)CCC/C=C\C[C@H]1C=CC(=O)/C1=C/C[C@@H](O)CCc1cccc(C(F)(F)F)c1`, the GI50 in test [1] is 3.2 µM; in test [2], 1.65 µM; in [3] it was 2.83 µM; in test [4], 13.7 µM; in [5], 1.29 µM; in test [6], 2.23 µM. Besides, the GI50 in [7] was 3.15 µM; in test [8], 2 µM; in test [9], 2.65 µM; in [10], 2.01 µM. Moreover, the TGI in test [1] was determined as 9.76 µM; in test [2], 3.22 µM; in test [3], 11.3 µM; in test [4], 71.2 µM; in test [5], 2.89 µM; in [6] it was 4.96 µM. In addition, the total growth inhibition concentration (TGI) in [7] was 29.3 µM; in [8] it was 3.61 µM; in test [9] it was 7.98 µM; in test [10] it was 4.8 µM.
As to `C[C@@H](CN1CC(=O)NC(=O)C1)N1CC(=O)NC(=O)C1`, the concentration for total growth inhibition (TGI) was found to be 692 µM in test [1]; 753 µM in [2]; 783 µM in test [3]; 1810 µM in test [4]; 729 µM in test [5]; 553 µM in test [6]. Besides, the TGI in test [7] worked out at 987 µM; in [8] it was 1140 µM; in [9] it was 754 µM; in [10], 1370 µM.
With `CN1C(=O)[C@@H](NC(=O)[C@H](CCC(F)(F)F)[C@H](CCC(F)(F)F)C(N)=O)N=C(c2ccccc2)c2ccccc21`, the GI50 in test [1] is 66.7 µM; in test [2], 45 µM; in test [3] it was 88.8 µM; in test [4] it was over 100 µM; in [5] it was over 100 µM; in [6], 83.4 µM. In addition, the GI50 is over 100 µM in [7], 24.6 µM in [8], over 100 µM in test [9] and over 100 µM in test [10]. Also, the TGI in [1], in [2], in test [3], in test [4], in test [5] and in test [6] was over 100 µM each time. The concentration for total growth inhibition (TGI) in [7], in [8], in [9] and in test [10] was over 100 µM throughout.
For the compound `CN(C)c1ncc(-c2ccc(C(F)(F)F)cc2)c(NC2CCCCCC2)n1`, the GI50 in test [1] was 18.2 µM; in test [2], 16 µM; in test [3], 20.4 µM; in test [4] it was 23.1 µM; in [6], 16.2 µM; in test [7], 22.2 µM. Moreover, the results for the GI50 in test [8] and in [10] were 10.8 µM and 15.6 µM, respectively. The total growth inhibition concentration (TGI) is 57.1 µM in test [1]; 31.2 µM in [2]; 44.4 µM in test [3]; over 100 µM in test [4]; 35.9 µM in test [6]; 80.6 µM in [7]. In addition, the total growth inhibition concentration (TGI) in test [8] came to 27.2 µM; in test [10], 37.5 µM.
In the case of `O=C(O)c1cc2ccccc2oc1=O`, the concentration for total growth inhibition (TGI) in [1], in test [2], in test [3], in test [4], in test [5] and in test [6] was over 100 µM each time. Moreover, the total growth inhibition concentration (TGI) in test [7], in test [8], in test [9] and in test [10] was over 100 µM each time.
Turning to `Nc1nc2cc3ccc(C4CC(O)C(CO)O4)cc3cc2c(=O)[nH]1` (configuration not stated), the GI50 in test [1], in [3], in test [4], in [5], in test [6] and in test [7] was over 100 µM each time. The figures for the GI50 in [8], in test [9] and in test [10] were over 100 µM, 0.0927 µM and over 100 µM, respectively. Besides, the concentration for total growth inhibition (TGI) in test [1], in [3], in test [4], in [5], in test [6] and in [7] was over 100 µM in each case. Further, the concentration for total growth inhibition (TGI) in test [8], in [9] and in test [10] was over 100 µM throughout.
Turning to `O=C(Nc1ccccc1O)c1ccc(CNc2ccnc(C(F)(F)F)c2)cc1`, the GI50 in test [1] is 12 µM; in [2], 2.59 µM; in test [3] it was 3.43 µM; in [4], 2.59 µM; in test [5] it was 2.8 µM; in test [6] it was 3.78 µM. Further, the GI50 was 2.41 µM in [7], 17.3 µM in test [8] and 10.4 µM in [10]. In addition, the total growth inhibition concentration (TGI) in test [1] is over 100 µM; in test [2] it was over 100 µM; in [3], 50 µM; in [4], 32.9 µM; in test [5], 46 µM; in test [6] it was 83.4 µM. The values for the total growth inhibition concentration (TGI) in [7], in test [8] and in [10] were 54.4 µM, 43.3 µM and 33.9 µM, respectively.
As to `Clc1ccc(C2=Nn3c(nnc3-c3cc(Cl)cc(Cl)c3Cl)SC2)cc1`, the GI50 in test [1] was 56.5 µM; in test [2], 15.5 µM; in test [3] it was 17.6 µM; in test [4], 16.5 µM; in [5] it was 27.1 µM; in test [6], 41.3 µM. The GI50 in test [7] is 16.6 µM; in test [9], 41.7 µM; in [10], 15.6 µM. The TGI is over 100 µM in test [1]; 45.5 µM in [2]; 47.7 µM in test [3]; 71.3 µM in test [4]; over 100 µM in test [5]; over 100 µM in test [6]. Also, the TGI in test [7] is over 100 µM; in test [9], over 100 µM; in test [10], 36.2 µM.
As to `COc1ccc(C[C@@H]2NC[C@@H](O)[C@@H]2OC(C)=O)cc1`, the GI50 was 5.54 µM in test [1]; 9.5 µM in test [2]; 3.46 µM in test [5]; 3.43 µM in test [6]; 3.73 µM in [10]. For the same compound, the TGI in test [3] came out at 0.145 µM; in [4] it was 0.169 µM; in test [8], 0.0674 µM; in test [9], 0.3 µM.
With `CC#C/C(=N\OC[C@H]1COCCN1)c1ccc2ncnc(Nc3ccc(OCc4cccc(F)c4)c(Cl)c3)c2c1`, the GI50 was 1.64 µM in [1]; 6.06 µM in test [3]; 1.89 µM in test [4]; 1.75 µM in test [5]; 1.27 µM in [7]; 1.97 µM in test [9]. Moreover, the GI50 in test [10] is 1.3 µM. For the same compound, the TGI in test [1] amounted to 9.85 µM; in test [3], 20.5 µM; in test [4], 4.46 µM; in test [5], 3.29 µM; in test [7] it was 2.87 µM; in [9], 3.61 µM. Also, in test [10], the TGI is 2.69 µM.
With `CCCCCCCCCCCCCCCC[N+](C)(CCO)Cc1cnc[nH]1` (configuration not stated), the GI50 in test [1] is 1.49 µM; in test [2], 3.13 µM; in [3], 2.52 µM; in test [4], 2.85 µM; in test [7], 14.7 µM. Also, the TGI came out at 5.57 µM in test [1]; 19.4 µM in test [2]; 7.05 µM in test [3]; 35.9 µM in test [4]; 42.4 µM in [7].
Take `COC(=O)Nc1nc2ccc(C(=O)c3ccc(N(C)C4COC4)cc3)cc2[nH]1`: the GI50 in [1] was 0.655 µM; in [2] it was 0.846 µM; in test [3], 2.08 µM; in test [4] it was 0.358 µM; in test [5], 0.761 µM; in [6], 0.359 µM. Further, the GI50 was 0.362 µM in [7], 0.593 µM in test [9] and 0.435 µM in test [10]. Besides, the TGI in test [1], in test [2], in test [3], in test [4], in test [5] and in test [6] was over 100 µM throughout. For the same compound, the total growth inhibition concentration (TGI) in [7], in [9] and in [10] was over 100 µM throughout.
As for `CC(=O)O[C@@H]1[C@@H](O)C2=C3[C@]4(C)[C@@H]1C(C)(C)C(=O)C[C@@H]4[C@]3(O)[C@H](OC(C)=O)[C@@]1(C[C@@H]1C)C2=O`, the TGI in test [1] is 68.4 µM; in [2] it was 43.4 µM; in [3] it was 37 µM; in test [4], over 100 µM; in [5], 30.5 µM; in test [6], 40.1 µM. The results for the TGI in [7], in test [9] and in test [10] were 62.5 µM, 68.5 µM and 61.5 µM, respectively.
As to `Cc1[nH]c2ccccc2c1-c1cc(-c2cc(-c3c(C)[nH]c4ccccc34)nc(N)n2)nc(N)n1`, the TGI in test [1], in test [2], in [3], in test [4], in test [5] and in test [6] was over 100 µM throughout. Also, the concentration for total growth inhibition (TGI) in test [7], in [9] and in test [10] was over 100 µM each time.
Regarding `COC(=O)NC1(NC(=O)OC)NC(=O)c2cc(OC)c(OC)c(OC)c2N1`, the concentration for total growth inhibition (TGI) was over 100 µM in test [1]; over 100 µM in test [2]; over 100 µM in test [3]; 67.7 µM in test [4]; over 100 µM in test [6]; 56.6 µM in test [7]. Moreover, the TGI in test [9] is 8.85 µM; in test [10], over 100 µM.
For the compound `O=C(/C=C/C=C/c1c(C2CC2)nc2ccccc2c1-c1ccc(F)cc1)c1cccs1`, the GI50 in [1] is 3.72 µM; in test [2], 1.34 µM; in test [3] it was 1.59 µM; in test [4], 3.68 µM; in test [6], 1.14 µM; in [7] it was 2.62 µM. The results for the GI50 in test [9] and in [10] were 1.74 µM and 4.05 µM, respectively. Also, the TGI in test [1] is over 100 µM; in test [2], 3.86 µM; in test [3], 5.07 µM; in [4] it was over 100 µM; in test [6], 3.31 µM; in test [7], over 100 µM. Besides, the TGI in test [9] was 6.14 µM; in test [10] it was over 100 µM.
